# Results taken from patent US20140357512A1, “HISTONE DEACETYLASE (HDAC) BIOMARKERS IN MULTIPLE MYELOMA” (priority 2013, published 2014).
# System: human myeloma cell line MM.1S
# Test: SILAC acetylated-lysine peptide profiling, HDAC inhibitor vs DMSO (light/heavy ratio)
# Format: cell-based
# Text: An embodiment of the invention comprises utilizing the SILAC method in order to quantitate changes in protein expression between two or more populations of cells. The SILAC method is a technique based on mass spectrometry that detects differences in protein abundance among samples using non-radioactive isotopic labeling. The SILAC method is known in the art, and described in detail in Ong et al., “Stable Isotope Labeling by Amino Acids in Cell Culture, SILAC, as a Simple and Accurate Approach to Expression Proteomics”, Molecular & Cellular Proteomics, vol. 1, pp. 376-386 (2002), which is incorporated herein by reference in its entirety.
# Briefly, the SILAC method involves growing two populations of cells in cell culture. The first population of cells is grown in growth media containing normal amino acids (“normal media”). The second population of cells is grown in media lacking a standard essential amino acid (such as lysine), but is then supplemented with a non-radioactive, isotopically labeled form of that essential amino acid (such as lysine labeled with ^13C atoms, rather than normal ^12C atoms), which is called “heavy media”. When the two populations of cells are each growing in the medium, they incorporate the amino acids into all of their proteins. The growth of cells maintained in the heavy media is no different from that in normal media. All peptides containing the heavy amino acids are heavier than their normal counterparts. The cells from each of the two populations of cells are lysed. The lysates from each of the two cell populations are then combined. The combined cell lysates are then analyzed by mass spectrometry. Pairs of chemically identical peptides of different stable isotope composition can be differentiated in a mass spectrometer due to their difference in mass. The ratio of peak intensities in the mass spectrum for such peptide pairs reflects the abundance ratio for the two proteins.
# This example describes SILAC studies that were performed to compare the effects of three different HDAC inhibitors (Compound A, Compound B, and tubastatin A) to a control on a human multiple myeloma cell line. The HDAC inhibitors were also compared amongst themselves to determine differences in their effects.
# A human myeloma cell line MM.1S was grown using either ^12C (light) or ^13C (heavy) lysine containing culture medium. The “heavy” cells were treated with DMSO as the control, and the “light” cells were treated with a single HDAC inhibitor at 37° C. for 6 hours. The heavy and light cells were lysed, and the lysates were mixed in 1:1 ratio and digested with the protease trypsin. The acetylated lysine containing peptides (due to the action of the HDAC inhibitor) in the digested peptide pool were captured by a non-specific anti-acetylated lysine antibody cocktail (the antibodies identify both light and heavy acetylated peptides), and subjected to mass spectrometry analysis in order to identify thousands of individual peptides.
# Thousands of peptides were identified in pairs (^12C and ^13C) due to their known mass differences. The amino acid sequence and quantitative ratio (Light/Heavy) of a given peptide in two differentially treated cell lysates were then determined and annotated with their possible protein (gene) sources.
# As stated above, three HDAC inhibitors (Compound A, Compound B, and Tubastatin A) were used. Thus, the SILAC method was performed three times, with a different HDAC inhibitor compared to a control each time. Accordingly, there are three pairs of quantitative data in the table below, i.e., Compound A:DMSO, Compound B:DMSO, and Tubastatin A:DMSO. A cut-off of 1.30 fold of change (increase or decrease) was then used to determine “changed” or “+” in the table, and any peptides with a fold of change less than 1.3 fold were determined to be “unchanged” or “0” in the table. Those peptides that were not identified were marked as “NA” in the table. […]
compound,measurement,setting,value
"O=C(NO)c1cnc(NC2(c3cccc(F)c3)CCCCC2)nc1 [Compound B, 2-((1-(3-fluorophenyl)cyclohexyl)amino)-N-hydroxypyrimidine-5-carboxamide]",L/H ratio of acetylated peptide,"VETFSGVYK(ac)K (SEQ ID NO: 445), 40S ribosomal protein S7 [178], RPS7",−0.78 log 2
same,L/H ratio of acetylated peptide,"VEWAK(ac)FQER (SEQ ID NO: 447), Splicing factor 3A subunit 1 [251], SF3A1",−0.55 log 2
same,"light to heavy ratio (L/H ratio) of acetylated peptide, log 2 scale","VGIVGK(ac)YGTR (SEQ ID NO: 250), 60S ribosomal protein L37a [13], RPL37A",0.00
same,L/H ratio of acetylated peptide,"VIIVVK(ac)DGPGFYTTR (SEQ ID NO: 401), Trifunctional enzyme subunit alpha mitochondrial [540], HADHA",−0.70 log 2
same,L/H ratio of acetylated peptide TNEK(ac)VELQELNDR (SEQ ID NO: 122),"VIM [104], log 2 scale, drug vs DMSO",0.00
same,L/H ratio of acetylated peptide FANYIDK(ac)VR (SEQ ID NO: 118),"VIM [120], log 2 scale, drug vs DMSO",0.00
same,L/H ratio of acetylated peptide […](ac)GQGK (SEQ ID NO: 119),"VIM [139], log 2 scale, drug vs DMSO",0.00
same,L/H ratio of acetylated peptide SK(ac)[…] (SEQ ID NO: 121),"VIM [294], log 2 scale, drug vs DMSO",0.00
same,L/H ratio of acetylated peptide LQDEIQNMK(ac)EEMAR (SEQ ID NO: 120),"VIM [373], log 2 scale, drug vs DMSO",0.00
same,"light to heavy ratio (L/H ratio) of acetylated peptide, log 2 scale","VVVGK(ac)[…] (SEQ ID NO: 193), Protein disulfide-isomerase A4 [533], PDIA4",0.00
same,L/H ratio of acetylated peptide,"VYISK(ac)CYR (SEQ ID NO: 394), Isoform 1 of Regulator of micro-tubule dynamics protein 3 [426], FAM82A2",−0.85 log 2
same,light to heavy ratio (L/H ratio) of acetylated peptide TLLIK(ac)TVETR (SEQ ID NO: 269),"Vimentin [445], VIM, drug:DMSO",0.00 log 2
same,L/H ratio of acetylated peptide,"WTPEVK(ac)[…] (SEQ ID NO: 442), Rho-related GTP-binding protein RhoC [104], RHOC",−0.39 log 2
same,light to heavy ratio (L/H ratio) of acetylated peptide IAAYK(ac)SILQER (SEQ ID NO: 531),"X-ray repair cross-complementing protein 5 [265], gene XRCC5, inhibitor:DMSO",0.00 log 2
same,light to heavy ratio (L/H ratio) of acetylated peptide EEAIK(ac)FSEEQR (SEQ ID NO: 509),"X-ray repair cross-complementing protein 5 [648], gene XRCC5, inhibitor:DMSO",0.00 log 2
same,light to heavy ratio (L/H ratio) of acetylated peptide […](ac)HFQD (SEQ ID NO: 355),"X-ray repair cross-complementing protein 6 [605], XRCC6, drug:DMSO",−0.74 log 2
same,L/H ratio of acetylated peptide ALQEK(ac)VEIK (SEQ ID NO: 123),"XRCC5 [665], log 2 scale, drug vs DMSO",0.00
same,L/H ratio of acetylated peptide,"YHVSEK(ac)PYGIVEK (SEQ ID NO: 424), NADH dehydrogenase [ubiquinone] 1 beta subcomplex subunit 6 [93], NDUFB6",−1.00 log 2
same,L/H ratio of acetylated peptide,"YK(ac)[…] (SEQ ID NO: 417), Microsomal glutathione S-transferase 3 [37], MGST3",−0.59 log 2
same,"light to heavy ratio (L/H ratio) of acetylated peptide, log 2 scale","YLENGK(ac)ETLQR (SEQ ID NO: 163), Putative HLA class I histocompatibility antigen alpha chain H [200], HLA-H",0.00
same,"light to heavy ratio (L/H ratio) of acetylated peptide, log 2 scale","YNCDK(ac)MICR (SEQ ID NO: 254), Ubiquitin-605 ribosomal protein L40 [93], UBA52",0.00
same,L/H ratio of acetylated peptide,"YPPPYK(ac)HFWTAES (SEQ ID NO: 461), Isoform 2 of Ubiquitin-associated protein 2-like [976], UBAP2L",−0.50 log 2
same,L/H ratio of acetylated peptide,"YTEQITNEK(ac)LAMVK (SEQ ID NO: 423), NADH dehydrogenase [ubiquinone] 1 alpha subcomplex subunit 5 [55], NDUFA5",−0.40 log 2
same,"light to heavy ratio (L/H ratio) of acetylated peptide, log 2 scale","[…](ac)AAVR (SEQ ID NO: 220), Tricarboxylate transport protein mitochondrial [97], SLC25A1",0.00
same,"light to heavy ratio (L/H ratio) of acetylated peptide, log 2 scale","[…](ac)DETEFR (SEQ ID NO: 137), UPF0568 protein C14orf166 [20], C14orf166",0.00
same,L/H ratio of acetylated peptide,"[…](ac)DGEIYCK (SEQ ID NO: 383), Cysteine and glycine-rich protein 1 [161], CSRP1",−0.67 log 2
same,L/H ratio of acetylated peptide,"[…](ac)EKLNER (SEQ ID NO: 406), 60 kDa heat shock protein mitochondrial [387], HSPD1",0.40 log 2
same,L/H ratio of acetylated peptide,"[…](ac)FDENAK (SEQ ID NO: 429), Phosphoglycerate kinase 1 [291], PGK1",0.60 log 2
same,L/H ratio of acetylated peptide,"[…](ac)FIAR (SEQ ID NO: 441), Protein RCC2 [293], RCC2",0.75 log 2
same,"light to heavy ratio (L/H ratio) of acetylated peptide, log 2 scale","[…](ac)FSDDHYR (SEQ ID NO: 190), NAD(P) transhydrogenase mitochondrial [100], NNT",0.00
same,L/H ratio of acetylated peptide,"[…](ac)FVER (SEQ ID NO: 460), cDNA FLJ40024 fis clone STOMA2007745 highly similar to UBIQUITIN-[…] E1 [119], UBA1",0.44 log 2
same,L/H ratio of acetylated peptide,"[…](ac)GDSK(ac)NAK (SEQ ID NO: 392), Histone acetyltransferase p300 [1542:1546], EP300",0.53 log 2
